Assay results published in PMC3425544, “The S100A10 Subunit of the Annexin A2 Heterotetramer Facilitates L2-Mediated Human Papillomavirus Infection” (PLoS ONE, 2012).

Legend:
[1] = system: S100A10 subunit of A2t; assay: EPR binding of L2 peptide to S100A10
Method: Recombinant annexin A2 was expressed in BL21(DE3) Escherichia coli cells and purified using reversible Ca^2+-dependent binding to negatively charged phospholipid vesicles followed by size exclusion chromatography. A pET23A vector containing the S100A10 sequence (a gift from Volker Gerke) was expressed in BL21(DE3) cells as previously described. Both proteins were stored at 4°C in 20 mM HEPES buffer at pH 7.4, containing 100 mM NaCl with the addition of 1 mM dithiothreitol. Concentrations of all proteins and peptides, including the A2t complex, were determined using bicinchoninic acid assays (Pierce Thermo Scientific, Rockford, IL) compared to measured absorbance of albumin standards at 562 nm. Purified annexin A2 and S100A10 were combined at a molar ratio of 1∶1 and concentrated to over 8 µg/µl. The mixture was incubated overnight at 4°C, and then loaded onto a superdex 200 10/300 GL (GE Healthcare USA) column equilibrated in the previously mentioned HEPES buffer. The eluted A2t peak was collected and subjected to peptide binding assays.
The L2_108–126 peptides used in our EPR studies were synthesized with a cysteine at the N-terminus, and followed by a spacer of 3 physiological amino acids (C-IVS) preceding the canonical L2_108–126 and L2 scrambled sequences (C-IVS-[…] and C-IVS-[…] respectively). Peptides were combined with 8× molar excess paramagnetic label (1-oxyl-2, 2, 5, 5-tetramethyl-Δ3-pyrroline-3-methyl) (R1) methanethiosulfonate (MTSL), (Toronto Research Chemicals, Canada) and left to react overnight at 4°C. Free label was removed by gel filtration (PD10 GE, United Kingdom). All peptides were solubilized into HEPES buffer. For competition assays, the scrambled peptide was non-paramagnetic labeled with an N-acetylated MTSL paramagnetic-label analog (1-acetyl-2,2,5,5- tetramethyl-Δ3-pyrroline-3-methyl) (R1′) at an 8× molar excess to emulate the paramagnetic label on control peptides. Binding interactions were examined by combining paramagnetically-labeled L2 peptide with A2t, BSA, ANXA2, or S100A10 (20 µM, 100 µM, 100 µM, 100 µM, and 100 µM respectively) in 10 µL volumes of the HEPES buffer, confined by glass capillaries, and measured at room temperature over a period of 24 hours using a Bruker EMX X-band EPR spectrometer. For the cysteine blocked S100A10, S100A10 was treated with R1′ and excess label was removed via gel filtration (see above) before the addition of paramagnetic labeled peptides. The experiments were done in triplicate with measurements taken at 12 db, in 5 scan intervals. All spectra were normalized to the same number of scans. To quantify the amount of bound peptide spectra of all tested proteins in combination with the L2_108–126 or ScrL2 peptides were compared to the spectra of L2_108–126 or ScrL2 peptides alone in solution using a spectra analyzing software (EPR 130, University of California, Los Angeles). By subtracting the alone peptide spectra from that of the combined samples we derive the spectra of the bound spectra, and based on double integration, relate this spectra to a concentration of the peptide that bound to the target protein.

[2] = system: A2t (annexin A2 heterotetramer); assay: EPR binding of L2 peptide to A2t; set-up: species or system human; details: mean of three separate experiments
Description: Next, we wanted to determine if there was a specific interaction between the L2_108–126 peptide and A2t using electron paramagnetic resonance (EPR) spectroscopy. EPR is a method of magnetic resonance spectroscopy measuring unpaired electrons whose underlying basic concepts are not unlike the more widely used technique of nuclear magnetic resonance (NMR) (reviewed in [43]). When coupled with site-directed paramagnetic-labeling, such as the attachment of a moiety with an unpaired electron to a cysteine residue, EPR can be used to obtain structural information within a small vicinity of the paramagnetic-label’s positions along the protein sequence. As a paramagnetic-label becomes locally constrained, such as when bound to another protein, its spectra will drastically change as visualized by a decrease in line amplitude and increased line-broadening. Therefore, EPR provides an in vitro biochemical method that measures protein-protein interactions by monitoring changes in the spectra recorded for a labeled protein in different experimental settings.
For our purposes, an N-terminal cysteine (with a 3 native aa spacer) contained in the L2_108–126 peptide (C-IVS-[…]) was paramagnetic-labeled (an unpaired-electron-containing small molecule was cross-linked via a disulfide bond to the peptide), and its spectra were analyzed after incubation with and without purified human recombinant A2t or controls. […]
Recombinant annexin A2 was expressed in BL21(DE3) Escherichia coli cells and purified using reversible Ca^2+-dependent binding to negatively charged phospholipid vesicles followed by size exclusion chromatography. […] Concentrations of all proteins and peptides, including the A2t complex, were determined using bicinchoninic acid assays (Pierce Thermo Scientific, Rockford, IL) compared to measured absorbance of albumin standards at 562 nm. […]

C-IVS-LVEETSFIDAGAPTSVPSI [L2_108–126, HPV16 L2 aa 108–126 peptide with N-terminal cysteine and IVS spacer]
interaction with S100A10 subunit ([1]; EPR, discussion): very strong interaction | relative % bound to S100A10 ([1]; EPR, 20 µM peptide, 100 µM S100A10, mean of three separate experiments): 92.5% | relative % bound to cysteine-blocked S100A10 ([1]; EPR, S100A10 cysteine-blocked with R1′ (αCys-S100A10), paramagnetic-labeled peptide, mean of three separate experiments): 73.1% | relative % bound to S100A10 in presence of ScrL2 ([1]; EPR, scrambled peptide 5∶1, mean of three separate experiments): 91.0% | relative binding constant (K), S100A10 ([1]; from EPR percent bound, association constant): 150000 M⁻¹ | relative % bound to A2t ([2]; 20 µM paramagnetic-labeled (MTSL) L2 peptide, 100 µM A2t, HEPES pH 7.4, room temperature): 78.0% | relative % bound to A2t in presence of ScrL2 ([2]; non-paramagnetic-labeled ScrL2 to WT L2_108–126 5∶1 molar ratio): 75.8%
